According to patent US20210395651A1, “COMPOUNDS STABILIZING HYDROLASES IN LIQUIDS” (BASF SE, priority 2018, published 2021):

Target: T1, Lipolase® 100L (Thermomyces lanuginosus, UniProt O59952)
T1 construct: purchased Sigma-Aldrich
T1 sequence (O59952 23-291): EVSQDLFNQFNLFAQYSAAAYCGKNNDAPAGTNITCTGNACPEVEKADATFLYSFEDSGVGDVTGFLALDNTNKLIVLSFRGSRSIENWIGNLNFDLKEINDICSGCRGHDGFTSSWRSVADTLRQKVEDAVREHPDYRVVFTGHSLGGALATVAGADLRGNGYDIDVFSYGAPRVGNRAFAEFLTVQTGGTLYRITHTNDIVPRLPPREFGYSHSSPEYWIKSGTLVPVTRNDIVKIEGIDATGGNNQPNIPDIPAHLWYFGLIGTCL
Test: Lipase storage stability in liquid formulations at 37° C. (pNP-valerate activity)
Format: biochemical, Thermomyces lanuginosa
Conditions: for lipase activity, 3 d: 3 d storage at 37° C.; for lipase activity, 7 d: 7 d storage at 37° C.; for lipase activity, 14 d: 14 d storage at 37° C.; for lipase activity, 21 d: 21 d storage at 37° C.; for lipase activity, 28 d: 28 d storage at 37° C.; for lipase activity, 35 d: 35 d storage at 37° C.; for lipase activity, T0: relative to 100% value of reference formulation at time 0
Method: The storage stability of Lipase was assessed at 37° C.
Base test formulations were manufactured by making base formulations I to V by mixing the components according to Table 1.
The respective component (a) or comparative compound was added, if applicable, to the respective base formulation in amounts as indicated in Table 1.
Lipase used: Lipolase® 100L (CAS-No. 9001-62-1, EC-No. 232-619-9) was purchased from Sigma-Aldrich.
The amount of lipase as provided in Table 1 refers to active protein.
Water was added to accomplish the balance to 100.
Lipolase activity at certain points in time as indicated in Table 2 was be determined by employing pNitrophenol-valerate (2.4 mM pNP-C5 in 100 mM Tris pH 8.0, 0.01% Triton X100) as a substrate. The absorption at 405 nm was measured at 20° C. every 30 seconds over 5 minutes.
The slope (absorbance increase at 405 nm per minute) of the time dependent absorption-curve is directly proportional to the activity of the lipase.
The […] activity values provided in Table 2 were calculated referring to the 100% value determined in the reference formulation at the time 0.
The nomenclature of formulations is as follows: the Roman number before the full stop characterizes the base formulation, the Arabian number the type of compound (A.# compound according to invention (component (a)); (B.#) comparative compound).

[1] = base formulation I. (Lipolase 0.2 wt%, tested compound 2.5 wt%)
[2] = base formulation II. (Lipolase 0.2 wt%, tested compound 2.5 wt%)
[3] = base formulation III. (Lipolase 0.2 wt%, tested compound 2.0 wt%)
[4] = base formulation IV. (Lipolase 0.2 wt%, tested compound 2.0 wt%)
[5] = base formulation V. (Lipolase 0.2 wt%, tested compound 2.0 wt%)

Row | Compound | lipase activity, 3 d [1] [%] | lipase activity, 7 d [1] [%] | lipase activity, 14 d [1] [%] | lipase activity, 21 d [1] [%] | lipase activity, 28 d [1] [%] | lipase activity, 35 d [1] [%] | lipase activity, T0 [1] [%] | lipase activity, 3 d [2] [%] | lipase activity, 7 d [2] [%] | lipase activity, 14 d [2] [%] | lipase activity, 21 d [2] [%] | lipase activity, 28 d [2] [%] | lipase activity, 35 d [2] [%] | lipase activity, T0 [2] [%] | lipase activity, 3 d [3] [%] | lipase activity, 7 d [3] [%] | lipase activity, 14 d [3] [%] | lipase activity, 21 d [3] [%] | lipase activity, 28 d [3] [%] | lipase activity, 35 d [3] [%] | other results
1 | Diethylcitrate [A.7] | 97 | 91 | 85 | 81 | 76 | 69 | 99 | 94 | 91 | 86 | 82 | 77 | 72 | 99 | 96 | 93 | 87 | 83 | 77 | 72 | lipase activity, T0 [3]: 97%; lipase activity, 3 d [4]: 95%; lipase activity, 7 d [4]: 93%; lipase activity, 14 d [4]: 88%; lipase activity, 21 d [4]: 85%; lipase activity, 28 d [4]: 80%; lipase activity, 35 d [4]: 74%; lipase activity, T0 [4]: 97%
2 | CCOC(=O)CC(O)(CC(=O)OCC)C(=O)OCC [A.1, Triethylcitrate] | 102 | 96 | 94 | 87 | 85 | 80 | 100 | 101 | 94 | 90 | 88 | 83 | 80 | 100 | 98 | 96 | 93 | 90 | 85 | 82 | lipase activity, T0 [3]: 100%; lipase activity, 3 d [4]: 96%; lipase activity, 7 d [4]: 94%; lipase activity, 14 d [4]: 93%; lipase activity, 21 d [4]: 88%; lipase activity, 28 d [4]: 85%; lipase activity, 35 d [4]: 82%; lipase activity, T0 [4]: 98%; lipase activity, 3 d [5]: 96%; lipase activity, 7 d [5]: 93%; lipase activity, 14 d [5]: 89%; lipase activity, 21 d [5]: 84%; lipase activity, 28 d [5]: 81%; lipase activity, 35 d [5]: 79%; lipase activity, T0 [5]: 100%
3 | CCCCOC(=O)CC(O)(CC(=O)OCCCC)C(=O)OCCCC [A.3, Tributylcitrate] |  |  |  |  |  |  |  |  |  |  |  |  |  |  |  |  |  |  |  |  | lipase activity, 3 d [4]: 100%; lipase activity, 7 d [4]: 96%; lipase activity, 14 d [4]: 95%; lipase activity, 21 d [4]: 90%; lipase activity, 28 d [4]: 88%; lipase activity, 35 d [4]: 85%; lipase activity, T0 [4]: 99%; lipase activity, 3 d [5]: 97%; lipase activity, 7 d [5]: 92%; lipase activity, 14 d [5]: 88%; lipase activity, 21 d [5]: 83%; lipase activity, 28 d [5]: 80%; lipase activity, 35 d [5]: 73%; lipase activity, T0 [5]: 101%
4 | O=C([O-])CC(O)(CC(=O)[O-])C(=O)[O-].[Na+].[Na+].[Na+] [B.2, citric acid trisodiumsalt, reference compound] | 90 | 81 | 68 | 57 | 47 | 31 | 97 | 95 | 82 | 63 | 56 | 41 | 34 | 98 | 94 | 80 | 69 | 53 | 44 | 37 | lipase activity, T0 [3]: 101%; lipase activity, 3 d [4]: 90%; lipase activity, 7 d [4]: 81%; lipase activity, 14 d [4]: 68%; lipase activity, 21 d [4]: 55%; lipase activity, 28 d [4]: 40%; lipase activity, 35 d [4]: 34%; lipase activity, T0 [4]: 96%
5 | CCOC(=O)CC(CC(=O)OCC)(OC(C)=O)C(=O)OCC [A.5, Acetyltriethylcitrate] | 100 | 97 | 92 | 86 | 81 | 74 | 97 | 98 | 97 | 93 | 90 | 85 | 81 | 102 | 95 | 93 | 88 | 85 | 80 | 77 | lipase activity, T0 [3]: 98%
